Assay results published in US20260000676A1, “CHROMAN DERIVATIVES AS ESTROGEN RECEPTOR DEGRADERS” (THE REGENTS OF THE UNIVERSITY OF MICHIGAN, priority 2022, published 2026).

How the values were obtained:
ER = ER (Homo sapiens (Human), UniProt P03372); assay: In-cell western (ICW) ER degradation assay in MCF-7 cells; type: cell-based; conditions: MCF7, 16 hrs; for DC50: ER degradation; for Dmax: MCF7, maximal ER degradation
Protocol: ERa degradative activity of compounds can be assessed in MCF-7 and T47D Cells. MCF-7 and T47D cell are seeded and are subsequently treated with the compounds at certain concentrations (e.g., 0.02 to 300 nM). DMSO can be used as vehicle control. Cells are fixed and are blocked with Intercept (PBS) Blocking Buffer (e.g., Li-COR, Odyssey Blocking Buffer), and are stained with ER (e.g., 1:500, Cell signaling) primary antibody for overnight at cold room. Secondary Antibody (e.g., IRDye 800CW Goat anti-Rabbit IgG) and CellTag 700 Stain are added in Intercept (PBS) Blocking Buffer. Finally, cell plate is placed in incubator to dry. Image and signal are captured on Odyssey® DLx Imaging System.
Day 3: After 16 hrs of compounds treatment, cells were fixed by 4% PFA and permeabilized with elution buffer (0.1% Triton X-100 in 1% PBS Solution). Subsequently, cells were blocked with Intercept (PBS) Blocking Buffer (Li-COR, Odyssey Blocking Buffer), and were stained with ER (1:500, Cell signaling) primary antibody for overnight at cold room.
Day 4: Remove the buffer, add IRDye 800CW Goat anti-Rabbit IgG Secondary Antibody (1:2000) and CellTag 700 Stain (1:500) in Intercept (PBS) Blocking Buffer. Finally, cell plate is placed in incubator to dry. Image and signal were captured on Odyssey® DLx Imaging System.

CRBN/DDB1 = CRBN/DDB1 (Homo sapiens (Human), UniProt Q96SW2); assay: HTRF binding assay to CRBN/DDB1; conditions: read-out: CRBN HTRF IC50
CRBN/DDB1, sequence (Q96SW2 whole entry): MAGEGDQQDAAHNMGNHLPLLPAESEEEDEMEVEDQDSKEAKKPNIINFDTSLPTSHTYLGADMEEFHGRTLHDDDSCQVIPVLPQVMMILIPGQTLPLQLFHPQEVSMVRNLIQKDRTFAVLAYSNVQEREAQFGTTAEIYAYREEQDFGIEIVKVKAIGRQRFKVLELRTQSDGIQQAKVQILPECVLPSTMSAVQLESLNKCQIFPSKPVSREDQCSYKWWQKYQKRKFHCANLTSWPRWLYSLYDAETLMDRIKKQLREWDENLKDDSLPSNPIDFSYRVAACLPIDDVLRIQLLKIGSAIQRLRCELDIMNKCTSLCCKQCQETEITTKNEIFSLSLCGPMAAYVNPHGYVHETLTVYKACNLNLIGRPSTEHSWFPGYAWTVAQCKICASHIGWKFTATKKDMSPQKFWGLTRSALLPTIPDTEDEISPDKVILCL
CRBN/DDB1, sequence (Q16531 whole entry partner): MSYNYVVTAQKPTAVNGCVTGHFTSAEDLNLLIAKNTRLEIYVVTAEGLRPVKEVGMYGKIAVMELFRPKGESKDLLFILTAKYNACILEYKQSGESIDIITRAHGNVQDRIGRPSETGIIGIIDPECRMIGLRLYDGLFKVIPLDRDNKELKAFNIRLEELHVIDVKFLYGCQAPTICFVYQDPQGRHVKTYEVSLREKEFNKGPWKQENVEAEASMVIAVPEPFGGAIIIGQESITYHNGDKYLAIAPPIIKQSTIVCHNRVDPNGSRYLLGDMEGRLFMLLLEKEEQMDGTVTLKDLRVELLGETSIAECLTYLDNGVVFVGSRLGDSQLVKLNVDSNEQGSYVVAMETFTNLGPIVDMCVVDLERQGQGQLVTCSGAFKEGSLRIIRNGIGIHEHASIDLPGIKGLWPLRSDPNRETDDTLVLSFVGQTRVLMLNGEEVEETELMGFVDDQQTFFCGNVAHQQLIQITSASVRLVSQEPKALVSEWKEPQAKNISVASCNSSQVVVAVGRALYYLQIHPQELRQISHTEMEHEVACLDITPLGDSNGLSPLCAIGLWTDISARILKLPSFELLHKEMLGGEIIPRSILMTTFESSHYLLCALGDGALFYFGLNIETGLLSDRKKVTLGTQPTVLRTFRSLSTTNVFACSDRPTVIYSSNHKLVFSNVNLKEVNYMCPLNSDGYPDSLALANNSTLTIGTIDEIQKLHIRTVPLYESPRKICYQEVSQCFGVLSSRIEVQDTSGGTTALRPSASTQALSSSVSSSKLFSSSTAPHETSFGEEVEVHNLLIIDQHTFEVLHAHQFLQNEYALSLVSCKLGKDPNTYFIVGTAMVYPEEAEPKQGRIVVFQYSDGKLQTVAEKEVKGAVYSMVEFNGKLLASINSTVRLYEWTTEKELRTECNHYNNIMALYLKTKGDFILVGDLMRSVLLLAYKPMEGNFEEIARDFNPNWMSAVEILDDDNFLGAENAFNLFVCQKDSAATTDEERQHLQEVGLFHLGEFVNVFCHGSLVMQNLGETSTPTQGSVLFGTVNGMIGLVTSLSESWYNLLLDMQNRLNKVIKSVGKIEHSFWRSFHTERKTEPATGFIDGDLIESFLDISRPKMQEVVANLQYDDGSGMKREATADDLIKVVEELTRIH
Protocol: The binding potency was determined using HTRF assay technology (Perkin Elmer). Compounds were serially diluted in DMSO and 0.2 μL volume was transferred to white 384-well plate.

ER, sequence (P03372 whole entry): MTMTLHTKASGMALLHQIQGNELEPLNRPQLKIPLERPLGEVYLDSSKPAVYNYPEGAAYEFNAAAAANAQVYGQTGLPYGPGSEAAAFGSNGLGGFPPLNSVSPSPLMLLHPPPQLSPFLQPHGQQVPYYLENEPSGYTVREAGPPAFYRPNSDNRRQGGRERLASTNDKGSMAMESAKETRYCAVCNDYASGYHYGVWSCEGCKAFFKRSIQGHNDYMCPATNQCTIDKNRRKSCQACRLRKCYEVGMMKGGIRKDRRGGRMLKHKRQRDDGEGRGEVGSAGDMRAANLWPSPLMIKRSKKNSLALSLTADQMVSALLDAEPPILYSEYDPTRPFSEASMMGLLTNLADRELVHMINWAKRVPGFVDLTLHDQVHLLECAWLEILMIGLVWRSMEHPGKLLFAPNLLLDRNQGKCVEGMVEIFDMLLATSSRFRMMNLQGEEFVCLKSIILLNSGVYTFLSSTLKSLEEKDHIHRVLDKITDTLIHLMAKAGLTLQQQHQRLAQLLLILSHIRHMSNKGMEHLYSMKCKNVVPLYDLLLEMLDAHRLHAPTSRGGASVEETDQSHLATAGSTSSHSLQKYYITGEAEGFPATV

“2-(2,6-dioxopiperidin-3-yl)-6-(2-(9-(4-((3R,4S)-7-hydroxy-3-phenylchroman-4-yl)phenyl)-3,9-diazaspiro[5.5]undecan-3-yl)acetyl)-6,7-dihydropyrrolo[3,4-flisoindole-1,3(2H,5H)-dione [Compound A43]” was tested, and the DC50 (ER) was over 100 nM, the “MCF7 Dmax %” value (ER; maximal ER degradation) was “D (“D”; <25%)” and the IC50 (CRBN/DDB1) was over 5000 nM.

`O=C1CCC(N2Cc3c(ccc4c3OC[C@@H]3CN(CC5CCN(c6ccc([C@@H]7c8ccc(O)cc8OC[C@@H]7c7ccccc7)cc6F)CC5)CCN43)C2=O)C(=O)N1` (single isomer, unassigned) [Compound A6] showed a DC50 (ER) of 1 to 10 nM, a Dmax (ER) of 50 to 75% and an IC50 (CRBN/DDB1) of 50 to 500 nM.

In the case of `O=C1CCC(N2Cc3c(ccc4c3OC[C@@H]3CN(CC5CCN(c6ccc([C@@H]7c8ccc(O)cc8OC[C@@H]7c7ccccc7)cc6)CC5)CCN43)C2=O)C(=O)N1` (single isomer, unassigned) [Compound A7], the DC50 (ER) is reported as 1 to 10 nM, the Dmax (ER) is reported as 50 to 75% and the IC50 (CRBN/DDB1) is reported as 50 to 500 nM.

For `O=C1CCC(N2Cc3c(ccc4c3OC[C@H]3CN(CC5CCN(c6ccc([C@@H]7c8ccc(O)cc8OC[C@@H]7c7ccccc7)cc6)CC5)CCN43)C2=O)C(=O)N1` (single isomer, unassigned) [Compound A8], the DC50 (ER) was 1 to 10 nM and the IC50 (CRBN/DDB1) was 50 to 500 nM.

`COc1ccc([C@@H]2COc3cc(O)ccc3[C@@H]2c2ccc(N3CCC(CN4CCN5c6ccc7c(c6OC[C@@H]5C4)CN(C4CCC(=O)NC4=O)C7=O)CC3)cc2)cc1` (single isomer, unassigned) [Compound A12] was tested, and the IC50 (CRBN/DDB1) was 50 to 500 nM.

For `COc1ccc([C@H]2COc3cc(O)ccc3[C@H]2c2ccc(N3CCC(CN4CCN5c6ccc7c(c6OC[C@@H]5C4)CN(C4CCC(=O)NC4=O)C7=O)CC3)cc2)cc1` (single isomer, unassigned) [Compound A13], the IC50 (CRBN/DDB1) was 50 to 500 nM.

`COc1ccc([C@@H]2COc3cc(O)ccc3[C@@H]2c2ccc(N3CCC(CN4CCN5c6ccc7c(c6OC[C@H]5C4)CN(C4CCC(=O)NC4=O)C7=O)CC3)cc2)cc1` (single isomer, unassigned) [Compound A15] was tested, and the IC50 (CRBN/DDB1) was 50 to 500 nM.

In the case of `O=C1CCC(N2Cc3c(ccc4c3OC[C@@H]3CN(CC5CCN(c6ncc([C@H]7c8ccc(O)cc8OC[C@H]7c7ccccc7)cn6)CC5)CCN43)C2=O)C(=O)N1` (single isomer, unassigned) [Compound A19], the IC50 (CRBN/DDB1) is reported as 50 to 500 nM.

Molecule `O=C1CCC(N2Cc3c(ccc4c3OC[C@@H]3CN(CC5CCN(c6ncc([C@@H]7c8ccc(O)cc8OC[C@@H]7c7ccccc7)cn6)CC5)CCN43)C2=O)C(=O)N1` (single isomer, unassigned) [Compound A20] has an IC50 (CRBN/DDB1) of under 50 nM.

With `O=C1CCC(N2Cc3c(ccc4c3OC[C@@H]3CN(CC5CC6(CCN(c7ccc([C@H]8c9ccc(O)cc9OC[C@H]8c8ccccc8)cc7)CC6)C5)CCN43)C2=O)C(=O)N1` (single isomer, unassigned) [Compound A21, 3-((S)-7-((7-(4-((3R,4S)-7-hydroxy-3-phenylchroman-4-yl)phenyl)-7-azaspiro[3.5]nonan-2-yl)methyl)-1-oxo-1,3,5,5a,6,7,8,9-octahydro-2H-pyrazino[1′,2′:4,5][1,4]oxazino[2,3-e]isoindol-2-yl)piperidine-2,6-dione] the IC50 (CRBN/DDB1) was under 50 nM.

For `COc1cccc([C@H]2COc3cc(O)ccc3[C@H]2c2ccc(N3CCC(CN4CCN5c6ccc7c(c6OC[C@@H]5C4)CN(C4CCC(=O)NC4=O)C7=O)CC3)cc2)c1` (single isomer, unassigned) [Compound A23], the IC50 (CRBN/DDB1) was under 50 nM.

For `COc1cccc([C@@H]2COc3cc(O)ccc3[C@@H]2c2ccc(N3CCC(CN4CCN5c6ccc7c(c6OC[C@@H]5C4)CN(C4CCC(=O)NC4=O)C7=O)CC3)cc2)c1` (single isomer, unassigned) [Compound A24], the IC50 (CRBN/DDB1) was under 50 nM.

Molecule `Cc1nn(C2CCC(=O)NC2=O)c2ccc(N3CCN(CC4CC5(CCN(c6ccc([C@@H]7c8ccc(O)cc8OC[C@@H]7c7ccccc7)cc6)CC5)C4)CC3)cc12` (single isomer, unassigned) [Compound A25] has an IC50 (CRBN/DDB1) of 50 to 500 nM.

Molecule `O=C1CCC(N2C(=O)c3cc4c(cc3C2=O)CN(CC(=O)N2CCC3(CC2)CCN(c2ncc([C@H]5c6ccc(O)cc6OC[C@H]5c5ccccc5)cn2)CC3)C4)C(=O)N1` (stereo partly drawn) [Compound A4, 2-(2,6-dioxopiperidin-3-yl)-6-(2-(9-(5-((3R,4S)-7-hydroxy-3-phenylchroman-4-yl)pyrimidin-2-yl)-3,9-diazaspiro[5.5]undecan-3-yl)-2-oxoethyl)-6,7-dihydropyrrolo[3,4-f]isoindole-1,3(2H,5H)-dione] has an IC50 (CRBN/DDB1) of 500 to 5000 nM.

`O=C1CCC(N2C(=O)c3cc4c(cc3C2=O)CN(CC(=O)N2CCC3(CC2)CCN(c2ncc([C@@H]5c6ccc(O)cc6OC[C@@H]5c5ccccc5)cn2)CC3)C4)C(=O)N1` (stereo partly drawn) [Compound A5, 2-(2,6-dioxopiperidin-3-yl)-6-(2-(9-(5-((3S,4R)-7-hydroxy-3-phenylchroman-4-yl)pyrimidin-2-yl)-3,9-diazaspiro[5.5]undecan-3-yl)-2-oxoethyl)-6,7-dihydropyrrolo[3,4-f]isoindole-1,3(2H,5H)-dione] was tested, and the IC50 (CRBN/DDB1) was 500 to 5000 nM.

With `O=C1CCC(N2Cc3cc4c(cc3C2=O)OC[C@@H]2CN(CC3CCN(c5ncc([C@@H]6c7ccc(O)cc7OC[C@@H]6c6ccccc6)cn5)CC3)CCN42)C(=O)N1` (stereo partly drawn) [Compound A10, 3-((S)-3-((1-(5-((3S,4R)-7-hydroxy-3-phenylchroman-4-yl)pyrimidin-2-yl)piperidin-4-yl)methyl)-8-oxo-1,2,3,4,4a,5,8,10-octahydro-9H-pyrazino[1′,2′:4,5][1,4]oxazino[2,3-f]isoindol-9-yl)piperidine-2,6-dione] the IC50 (CRBN/DDB1) was 500 to 5000 nM.

For `O=C1CCC(N2Cc3cc4c(cc3C2=O)OC[C@@H]2CN(CC3CCN(c5ccc([C@H]6c7ccc(O)cc7OC[C@H]6c6ccccc6)cc5)CC3)CCN42)C(=O)N1` (stereo partly drawn) [Compound A11, 3-((S)-3-((1-(4-((3R,4S)-7-hydroxy-3-phenylchroman-4-yl)phenyl)piperidin-4-yl)methyl)-8-oxo-1,2,3,4,4a,5,8,10-octahydro-9H-pyrazino[1′,2′:4,5][1,4]oxazino[2,3-f]isoindol-9-yl)piperidine-2,6-dione], the IC50 (CRBN/DDB1) was over 5000 nM.

Work on `O=C1CCC(N2Cc3cc4c(cc3C2=O)OC[C@@H]2CN(CC3CCN(c5ncc([C@H]6c7ccc(O)cc7OC[C@H]6c6ccccc6)cn5)CC3)CCN42)C(=O)N1` (stereo partly drawn) [Compound A18, 3-((S)-3-((1-(5-((3R,4S)-7-hydroxy-3-phenylchroman-4-yl)pyrimidin-2-yl)piperidin-4-yl)methyl)-8-oxo-1,2,3,4,4a,5,8,10-octahydro-9H-pyrazino[1′,2′:4,5][1,4]oxazino[2,3-f]isoindol-9-yl)piperidine-2,6-dione] yielded an IC50 (CRBN/DDB1) of 500 to 5000 nM.

With `O=C1CCC(N2Cc3c(ccc4c3OC[C@@H]3CN(CC5CC6(CCN(c7ccc([C@@H]8c9ccc(O)cc9OC[C@@H]8c8ccccc8)cc7)CC6)C5)CCN43)C2=O)C(=O)N1` (stereo partly drawn) [Compound A22, 3-((S)-7-((7-(4-((3S,4R)-7-hydroxy-3-phenylchroman-4-yl)phenyl)-7-azaspiro[3.5]nonan-2-yl)methyl)-1-oxo-1,3,5,5a,6,7,8,9-octahydro-2H-pyrazino[1′,2′:4,5][1,4]oxazino[2,3-e]isoindol-2-yl)piperidine-2,6-dione] the IC50 (CRBN/DDB1) was under 50 nM.

`O=C1CCC(N2Cc3cc4c(cc3C2=O)OC[C@@H]2CN(CC3CC5(CCN(c6ccc([C@@H]7c8ccc(O)cc8OC[C@@H]7c7ccccc7)cc6)CC5)C3)CCN42)C(=O)N1` (stereo partly drawn) [Compound A28, 3-((S)-3-((7-(4-((3S,4R)-7-hydroxy-3-phenylchroman-4-yl)phenyl)-7-azaspiro[3.5]nonan-2-yl)methyl)-8-oxo-1,2,3,4,4a,5,8,10-octahydro-9H-pyrazino[1′,2′:4,5][1,4]oxazino[2,3-f]isoindol-9-yl)piperidine-2,6-dione] was tested, and the IC50 (CRBN/DDB1) was over 5000 nM.

`O=C1CCC(Nc2ccc(N3CCN(CC4CCN(c5ccc([C@@H]6c7ccc(O)cc7OC[C@@H]6c6ccccc6)cc5F)CC4)CC3)c(F)c2)C(=O)N1` (stereo partly drawn) [Compound A29, 3-((3-fluoro-4-(4-((1-(2-fluoro-4-((3S,4R)-7-hydroxy-3-phenylchroman-4-yl)phenyl)piperidin-4-yl)methyl)piperazin-1-yl)phenyl)amino)piperidine-2,6-dione] gave an IC50 (CRBN/DDB1) of 500 to 5000 nM.

`O=C1CCC(Nc2ccc(N3CCN(CC4CCN(c5ccc([C@@H]6c7ccc(O)cc7OC[C@@H]6c6ccccc6)cc5)CC4)CC3)c(F)c2)C(=O)N1` (stereo partly drawn) [Compound A30, 3-((3-fluoro-4-(4-((1-(4-((3S,4R)-7-hydroxy-3-phenylchroman-4-yl)phenyl)piperidin-4-yl)methyl)piperazin-1-yl)phenyl)amino)piperidine-2,6-dione] gave an IC50 (CRBN/DDB1) of 500 to 5000 nM.

Molecule `O=C1CCC(N2C(=O)c3cc4c(cc3C2=O)CN(C(=O)CN2CC3(CCN(c5ccc([C@@H]6c7ccc(O)cc7OC[C@@H]6c6ccccc6)cc5)CC3)C2)C4)C(=O)N1` (stereo partly drawn) [Compound A32, 2-(2,6-dioxopiperidin-3-yl)-6-(2-(7-(4-((3S,4R)-7-hydroxy-3-phenylchroman-4-yl)phenyl)-2,7-diazaspiro[3.5]nonan-2-yl)acetyl)-6,7-dihydropyrrolo[3,4-f]isoindole-1,3(2H,5H)-dione] has an IC50 (CRBN/DDB1) of 500 to 5000 nM.
